In patent US20250034216A1, “STEREOSELECTIVE COVALENT LIGANDS FOR ONCOGENIC AND IMMUNOLOGICAL PROTEINS” (The Scripps Research Institute, priority 2021, published 2025):

Legend:
PRORP_C507 = target: T1, PRORP_C507 (Homo sapiens, UniProt O15091); assay: IA-DTB cysteine engagement; assay type: binding; details: 22Rv1 cells, 20 μM probe, 1 h, relative to DMSO
T1 construct: endogenous in cells; host or cells: 22Rv1
T1 sequence (O15091 46-583): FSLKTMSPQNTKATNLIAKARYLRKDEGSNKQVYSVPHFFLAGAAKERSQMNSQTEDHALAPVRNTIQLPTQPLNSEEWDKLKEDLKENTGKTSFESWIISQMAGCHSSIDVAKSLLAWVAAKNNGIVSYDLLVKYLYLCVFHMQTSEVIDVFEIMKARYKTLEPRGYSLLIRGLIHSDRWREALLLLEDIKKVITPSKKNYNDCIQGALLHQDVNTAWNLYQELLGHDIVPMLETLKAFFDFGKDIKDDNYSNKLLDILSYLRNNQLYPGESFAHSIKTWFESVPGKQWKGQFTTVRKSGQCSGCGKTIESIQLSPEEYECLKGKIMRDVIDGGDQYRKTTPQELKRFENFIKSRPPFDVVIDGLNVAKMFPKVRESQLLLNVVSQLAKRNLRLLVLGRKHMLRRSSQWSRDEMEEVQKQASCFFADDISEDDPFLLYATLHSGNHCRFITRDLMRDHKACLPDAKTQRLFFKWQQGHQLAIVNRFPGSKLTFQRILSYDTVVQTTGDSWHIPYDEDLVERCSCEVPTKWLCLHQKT
Method in brief: (§1)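 Read-out is TMT-based cysteine engagement, expressed as each reporter ion intensity divided by the average of the DMSO channels. Before that, probe-treated cell lysates were capped with IA-DTB, digested, enriched on streptavidin and TMT-tagged. PSMs with DMSO summed intensity <10,000 or DMSO CV >0.5 were excluded.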

GNPAT_C122 = target: T2, GNPAT_C122 (Homo sapiens, UniProt O15228); assay: IA-DTB cysteine engagement; assay type: binding; details: 22Rv1 cells, 20 μM probe, 1 h, relative to DMSO
T2 construct: endogenous in cells; host or cells: 22Rv1
T2 sequence (O15228 1-680): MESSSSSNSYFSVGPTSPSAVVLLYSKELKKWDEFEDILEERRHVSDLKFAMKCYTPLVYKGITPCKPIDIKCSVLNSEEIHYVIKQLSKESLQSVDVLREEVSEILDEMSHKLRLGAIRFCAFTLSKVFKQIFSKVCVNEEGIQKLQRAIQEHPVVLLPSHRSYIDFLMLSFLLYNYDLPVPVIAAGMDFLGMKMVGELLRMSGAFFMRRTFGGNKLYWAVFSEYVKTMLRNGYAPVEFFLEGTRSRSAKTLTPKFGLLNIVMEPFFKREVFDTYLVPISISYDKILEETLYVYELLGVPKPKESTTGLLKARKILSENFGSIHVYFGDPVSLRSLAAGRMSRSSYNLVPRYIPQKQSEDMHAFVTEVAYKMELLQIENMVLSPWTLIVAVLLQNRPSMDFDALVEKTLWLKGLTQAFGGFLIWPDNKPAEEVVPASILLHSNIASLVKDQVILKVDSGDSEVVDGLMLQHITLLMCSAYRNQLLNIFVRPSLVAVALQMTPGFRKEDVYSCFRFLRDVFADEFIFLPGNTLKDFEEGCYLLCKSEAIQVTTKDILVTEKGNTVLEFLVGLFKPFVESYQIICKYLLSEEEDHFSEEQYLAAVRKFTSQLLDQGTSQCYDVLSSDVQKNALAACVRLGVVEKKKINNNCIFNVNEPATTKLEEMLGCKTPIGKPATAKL
Method in brief: as §1

| % engagement PRORP_C507 (PRORP_C507) [%] | % engagement GNPAT_C122 (GNPAT_C122) [%] | SMILES |
| --- | --- | --- |
| 34.5 | 51.5 | C=CC(=O)N1C[C@H](c2ccc(Br)cc2)[C@H]1C(=O)Nc1cccc2cccnc12 [MY-3B, (2S,3S)-1-acryloyl-3-(4-bromophenyl)-N-(quinolin-8-yl)azetidine-2-carboxamide] |
| 74.25 | 74.5 | C=CC(=O)N1C[C@H](c2ccc(Br)cc2)[C@@H]1C(=O)Nc1cccc2cccnc12 [MY-1B, (2R,3S)-1-acryloyl-3-(4-bromophenyl)-N-(quinolin-8-yl)azetidine-2-carboxamide] |
| 1.25 | 35.5 | C=CC(=O)N1C[C@H](c2ccc(Br)cc2)[C@H]1C(=O)Nc1cccc2cccnc12 [MY-3A, (2S,3S)-1-acryloyl-3-(4-bromophenyl)-N-(quinolin-8-yl)azetidine-2-carboxamide] |
| 6.75 | 70.5 | C=CC(=O)N1C[C@@H](c2ccc(Br)cc2)[C@H]1C(=O)Nc1cccc2cccnc12 [MY-1A, (2S,3R)-1-acryloyl-3-(4-bromophenyl)-N-(quinolin-8-yl)azetidine-2-carboxamide] |
